Results: ChEMBL document CHEMBL1135308, “Non-peptide alpha(v)beta(3) antagonists. Part 4: potent and orally bioavailable chain-shortened RGD mimetics” (Bioorg Med Chem Lett, 2002)

Columns and labels:
Integrin alpha-V/beta-3 = Integrin alpha-V/beta-3 (Homo sapiens, UniProt P05106+P06756); assay: Inhibition of binding to human alpha V beta3; type: protein-complex assay
[1] = Partition coefficient (logP); type: physicochemical; details: octanol/water
[2] = Compound was tested for plasma half life when administered in dog perorally (1 mg/kg) and intravenously (0.2 mg/kg); type: ADME, organism-based, Canis lupus familiaris
[3] = Oral bioavailability in dog (1 mg/kg p.o. and 0.2 mg/kg i.v.); type: ADME, organism-based, Canis lupus familiaris; details: in vivo
[4] = Compound was tested for its ability of plasma clearance when administered in dog perorally (1 mg/kg) and intravenously (0.2 mg/kg); type: ADME, organism-based, Canis lupus familiaris; details: iv
Homo sapiens = species: Homo sapiens; assay: Inhibitory concentration required for 50% inhibition of the rate of ADP-stimulated platelet aggregation; type: functional, organism-based

Integrin alpha-V/beta-3, sequence (P05106 27-788 limits assumed): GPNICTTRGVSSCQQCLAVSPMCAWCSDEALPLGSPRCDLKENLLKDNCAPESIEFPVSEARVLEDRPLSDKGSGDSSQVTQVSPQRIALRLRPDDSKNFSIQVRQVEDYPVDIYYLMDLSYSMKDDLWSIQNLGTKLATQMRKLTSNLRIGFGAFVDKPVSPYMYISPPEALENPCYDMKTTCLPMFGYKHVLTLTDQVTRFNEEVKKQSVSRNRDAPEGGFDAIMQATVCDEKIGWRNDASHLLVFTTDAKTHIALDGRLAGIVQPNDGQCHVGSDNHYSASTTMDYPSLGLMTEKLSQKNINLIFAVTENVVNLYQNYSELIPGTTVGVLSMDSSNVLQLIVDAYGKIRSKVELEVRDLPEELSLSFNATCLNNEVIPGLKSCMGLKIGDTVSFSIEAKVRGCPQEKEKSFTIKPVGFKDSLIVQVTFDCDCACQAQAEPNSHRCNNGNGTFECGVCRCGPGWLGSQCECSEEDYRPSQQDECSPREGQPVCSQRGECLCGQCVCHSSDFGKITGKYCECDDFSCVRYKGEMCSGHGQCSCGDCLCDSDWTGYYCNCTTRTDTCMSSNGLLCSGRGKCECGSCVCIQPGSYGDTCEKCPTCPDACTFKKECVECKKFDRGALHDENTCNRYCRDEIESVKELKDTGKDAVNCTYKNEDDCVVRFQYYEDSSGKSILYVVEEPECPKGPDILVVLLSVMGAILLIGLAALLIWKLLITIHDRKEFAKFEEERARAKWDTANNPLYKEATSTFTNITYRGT
Integrin alpha-V/beta-3, sequence (P06756 31-889 limits assumed): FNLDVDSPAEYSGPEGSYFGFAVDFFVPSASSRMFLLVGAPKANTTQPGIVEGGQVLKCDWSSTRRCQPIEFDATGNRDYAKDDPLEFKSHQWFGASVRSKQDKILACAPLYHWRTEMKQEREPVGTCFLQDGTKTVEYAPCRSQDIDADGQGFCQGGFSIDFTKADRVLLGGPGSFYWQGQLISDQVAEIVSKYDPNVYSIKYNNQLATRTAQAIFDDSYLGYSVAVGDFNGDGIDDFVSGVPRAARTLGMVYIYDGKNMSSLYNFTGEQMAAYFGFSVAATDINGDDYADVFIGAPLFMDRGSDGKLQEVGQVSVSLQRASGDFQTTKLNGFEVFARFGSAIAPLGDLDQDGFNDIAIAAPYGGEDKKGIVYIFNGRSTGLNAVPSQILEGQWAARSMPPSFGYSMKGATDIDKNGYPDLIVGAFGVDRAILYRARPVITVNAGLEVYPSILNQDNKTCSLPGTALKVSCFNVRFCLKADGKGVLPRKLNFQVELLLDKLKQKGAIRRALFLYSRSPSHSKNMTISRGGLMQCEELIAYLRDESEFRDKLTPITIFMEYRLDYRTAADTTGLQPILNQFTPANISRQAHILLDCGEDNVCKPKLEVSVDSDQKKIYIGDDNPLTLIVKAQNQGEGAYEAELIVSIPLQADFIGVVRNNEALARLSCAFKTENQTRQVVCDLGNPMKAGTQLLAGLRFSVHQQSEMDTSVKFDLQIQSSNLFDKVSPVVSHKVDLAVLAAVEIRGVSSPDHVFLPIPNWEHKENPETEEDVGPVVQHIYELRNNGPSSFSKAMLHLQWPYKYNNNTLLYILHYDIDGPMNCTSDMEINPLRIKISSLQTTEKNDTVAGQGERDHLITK
Integrin alpha-V/beta-3, sequence (P06756 891-1048 limits assumed): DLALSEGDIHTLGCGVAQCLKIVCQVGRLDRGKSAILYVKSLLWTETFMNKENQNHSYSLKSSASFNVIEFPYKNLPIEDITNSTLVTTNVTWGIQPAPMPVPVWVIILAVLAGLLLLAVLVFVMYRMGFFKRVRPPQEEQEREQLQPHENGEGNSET

IC50 (Integrin alpha-V/beta-3) [nM]	logP [1]	half-life [2] [h]	bioavailability [3] [%]	clearance [4] [mL/min/kg]	IC50 (Homo sapiens) [nM]	SMILES
13.1	-0.24	1.2	25	37	> 10000	O=C(O)C[C@H](NC(=O)CCCCc1ccc2c(n1)NCCC2)c1ccc2nc(O)oc2c1
0.67	–	–	–	–	–	O=C(O)C[C@H](NC(=O)CNC(=O)CCCc1ccc2c(n1)NCCC2)c1cnc2ccccc2c1
500	–	–	–	–	–	O=C(O)CCNC(=O)CCCCc1ccc2c(n1)NCCC2
1.5	0.47	2.4	94	1.2	> 10000	O=C(O)C[C@H](NC(=O)CCCCc1ccc2c(n1)NCCC2)c1ccc2c(c1)OCO2
3.3	-1.21	2.4	10	26	> 10000	O=C(O)C[C@H](NC(=O)CCCCc1ccc2c(n1)NCCC2)c1cncnc1
1.6	0.76	2.4	65	5.8	4440	O=C(O)C[C@H](NC(=O)CCCCc1ccc2c(n1)NCCC2)c1cnc2ccccc2c1
48	–	–	–	–	–	O=C(O)CCNC(=O)CNC(=O)CCCc1ccc2c(n1)NCCC2
3	0.53	2.5	99	1.2	> 10000	O=C(O)C[C@H](NC(=O)CCCCc1ccc2c(n1)NCCC2)c1ccc2c(c1)OCC2
5.8	–	–	–	–	–	O=C(O)C[C@H](NC(=O)CCCCCCc1ccc2c(n1)NCCC2)c1cnc2ccccc2c1
5.9	–	–	–	–	–	O=C(O)C[C@H](NC(=O)CCCCCc1ccc2c(n1)NCCC2)c1cnc2ccccc2c1
23	0.29	5.5	81	2	> 10000	O=C(O)C[C@H](NC(=O)CCCCc1ccc2c(n1)NCCC2)c1cccc(F)c1
